# Experiments:
# Cytochrome P450 2D6 = Cytochrome P450 2D6 (Homo sapiens, UniProt P10635); assay: Inhibition of human recombinant CYP2D6 after 30 mins; assay type: ADME
# [1] = AUC (2 to 24 hrs) in Sprague-Dawley rat whole blood at 10 mg/kg, iv by LC/MS/MS analysis; assay type: ADME, organism-based; set-up: time 2-24 hr, dose 10 mg/kg, route intravenous
# [2] = AUC (0 to infinity) in Sprague-Dawley rat at 10 mg/kg, po after 24 hrs by LC/MS/MS analysis; assay type: ADME, organism-based; set-up: time infinity, dose 10 mg/kg, route oral; conditions: plasma
# [3] = Cmax in monkey at 5 mg/kg, po after 24 hrs by LC/MS/MS analysis; assay type: ADME, organism-based, Macaca mulatta; set-up: dose 5 mg/kg, route oral; conditions: rhesus monkey, in vivo
# [4] = Apparent volume of distribution in monkey at 1.4 mg/kg, iv after 24 hrs by LC/MS/MS analysis; assay type: ADME, organism-based, Macaca mulatta; set-up: dose 1.4 mg/kg, route intravenous; conditions: rhesus monkey, in vivo, read-out: Vz
# Cytochrome P450 3A4 = Cytochrome P450 3A4 (Homo sapiens, UniProt P08684); assay: Inhibition of human recombinant CYP3A4 after 30 mins; assay type: ADME
# [5] = Apparent elimination half life in Sprague-Dawley rat at 2 mg/kg, iv by LC/MS/MS analysis; assay type: ADME, organism-based; set-up: dose 2 mg/kg, route intravenous; conditions: in vivo
# [6] = Apparent volume of distribution in Sprague-Dawley rat at 2 mg/kg, iv after 24 hrs by LC/MS/MS analysis; assay type: ADME, organism-based; set-up: dose 2 mg/kg, route intravenous; conditions: in vivo, read-out: Vz
# [7] = Apparent elimination half life Sprague-Dawley rat at 5 mg/kg, po after 24 hrs by LC/MS/MS analysis; assay type: ADME, organism-based; set-up: dose 5 mg/kg, route oral; conditions: in vivo
# [8] = Apparent volume of distribution in Sprague-Dawley rat at 5 mg/kg, iv after 24 hrs by LC/MS/MS analysis; assay type: ADME, organism-based; set-up: dose 5 mg/kg, route intravenous; conditions: in vivo, read-out: Vz
# Hepatitis C virus [9] = assay: microbe, parasite or virus in culture; conditions: Huh-7, 72 h
# [10] = Apparent elimination half life in monkey at 1 mg/kg, iv by LC/MS/MS analysis; assay type: ADME, organism-based, Macaca mulatta; set-up: dose 1 mg/kg, route intravenous; conditions: rhesus monkey, in vivo
# [11] = Apparent elimination half life in Sprague-Dawley rat at 5 mg/kg, iv by LC/MS/MS analysis; assay type: ADME, organism-based; set-up: dose 5 mg/kg, route intravenous; conditions: in vivo
# Hepatocyte [12] = assay: Cellular uptake in human hepatocytes assessed per mg of cellular protein association with nonparenchymal fraction at 0.378 uM after 1 hr by LC/MS/MS analysis; assay type: ADME, cell-based
# [13] = Tmax in Sprague-Dawley rat at 20 mg/kg, po by LC/MS/MS analysis; assay type: ADME, organism-based; set-up: dose 20 mg/kg, route oral; conditions: in vivo
# [14] = Systemic clearance in monkey at 1.4 mg/kg, iv after 24 hrs by LC/MS/MS analysis; assay type: ADME, organism-based, Macaca mulatta; set-up: dose 1.4 mg/kg, route intravenous; conditions: rhesus monkey, in vivo
# [15] = Tmax in Sprague-Dawley rat at 10 mg/kg, po by LC/MS/MS analysis; assay type: ADME, organism-based; set-up: dose 10 mg/kg, route oral; conditions: in vivo
# [16] = Tmax in monkey at 15 mg/kg, po by LC/MS/MS analysis; assay type: ADME, organism-based, Macaca mulatta; set-up: dose 15 mg/kg, route oral; conditions: rhesus monkey, in vivo
# [17] = Cmax in Sprague-Dawley rat at 20 mg/kg, po after 24 hrs by LC/MS/MS analysis; assay type: ADME, organism-based; set-up: dose 20 mg/kg, route oral; conditions: in vivo
# Cytochrome P450 1A2 = biological target: T1, Cytochrome P450 1A2 (Homo sapiens, UniProt P05177); assay: Inhibition of human recombinant CYP1A2 after 30 mins; assay type: ADME
# T1 sequence (P05177 whole entry): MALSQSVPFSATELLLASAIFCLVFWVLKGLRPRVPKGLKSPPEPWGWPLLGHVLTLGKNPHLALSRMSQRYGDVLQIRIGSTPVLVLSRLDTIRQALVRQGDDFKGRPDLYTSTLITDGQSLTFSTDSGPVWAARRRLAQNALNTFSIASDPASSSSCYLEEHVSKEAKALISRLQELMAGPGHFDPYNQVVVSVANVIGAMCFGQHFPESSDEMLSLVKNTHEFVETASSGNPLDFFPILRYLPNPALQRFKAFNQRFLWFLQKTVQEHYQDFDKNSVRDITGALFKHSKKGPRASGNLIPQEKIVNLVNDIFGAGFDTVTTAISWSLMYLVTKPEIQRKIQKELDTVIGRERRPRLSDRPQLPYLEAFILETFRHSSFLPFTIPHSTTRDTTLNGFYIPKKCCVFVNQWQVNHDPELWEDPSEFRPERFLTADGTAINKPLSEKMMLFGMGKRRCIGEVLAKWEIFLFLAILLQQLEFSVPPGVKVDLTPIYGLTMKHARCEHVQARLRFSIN
# [18] = Cmax in Sprague-Dawley rat at 5 mg/kg, po after 24 hrs by LC/MS/MS analysis; assay type: ADME, organism-based; set-up: dose 5 mg/kg, route oral; conditions: in vivo
# Hepatitis C virus [19] = assay: microbe, parasite or virus in culture; conditions: Huh-7, 48 h
# Description: Antiviral activity against Hepatitis C virus infected in human Huh7ET cells assessed as inhibition of viral replication after 48 hrs by luciferase reporter gene assay
# [20] = Apparent elimination half life in monkey at 5 mg/kg, po after 24 hrs by LC/MS/MS analysis; assay type: ADME, organism-based, Macaca mulatta; set-up: dose 5 mg/kg, route oral; conditions: rhesus monkey, in vivo
# [21] = AUC (0 to infinity) in monkey at 1.4 mg/kg, iv after 24 hrs by LC/MS/MS analysis; assay type: ADME, organism-based, Macaca mulatta; set-up: time infinity, dose 1.4 mg/kg, route intravenous; conditions: rhesus monkey, plasma
# Hepatocyte [22] = assay: Cellular uptake in human hepatocytes assessed per mg of cellular protein association with hepatocyte fraction at 2.27 uM after 1 hr by LC/MS/MS analysis; assay type: ADME, cell-based
# [23] = AUC (0 to infinity) in Sprague-Dawley rat at 20 mg/kg, po after 24 hrs by LC/MS/MS analysis; assay type: ADME, organism-based; set-up: time infinity, dose 20 mg/kg, route oral; conditions: plasma
# [24] = Cmax in monkey at 1 mg/kg, iv after 24 hrs by LC/MS/MS analysis; assay type: ADME, organism-based, Macaca mulatta; set-up: dose 1 mg/kg, route intravenous; conditions: rhesus monkey, in vivo
# Hepatitis C virus [25] = assay: Antiviral activity against Hepatitis C virus infected in human Huh7ET cells assessed as inhibition of viral replication at 0.02 to 5 uM by luciferase reporter gene assay; assay type: functional, organism-based; conditions: Hepacivirus hominis, Huh-7, TDE = time-dependent effect
# Jurkat = assay: cells; conditions: Homo sapiens
# [26] = Half life in human liver microsomes at 1 uM after 5 to 30 mins by MS analysis in presence of NADPH; assay type: ADME, Microsome
# Hepatocyte [27] = assay: Cellular uptake in human hepatocytes assessed per mg of cellular protein association with nonparenchymal fraction at 2.27 uM after 1 hr by LC/MS/MS analysis; assay type: ADME, cell-based
# PBMC = assay: Cytotoxicity against human PBMC at 0.0031 uM after 18 hrs; assay type: cell-based
# [28] = Cmax in Sprague-Dawley rat at 5 mg/kg, iv after 24 hrs by LC/MS/MS analysis; assay type: ADME, organism-based; set-up: dose 5 mg/kg, route intravenous; conditions: in vivo
# [29] = Oral bioavailability in monkey at 5 mg/kg after 24 hrs by LC/MS/MS analysis; assay type: ADME, organism-based, Macaca mulatta; conditions: rhesus monkey, in vivo
# [30] = AUC (2 to 24 hrs) in Sprague-Dawley rat whole blood at 10 mg/kg, po by LC/MS/MS analysis; assay type: ADME, organism-based; set-up: time upper 24 hr, time lower 2 hr, dose 10 mg/kg, route oral
# [31] = Cmax in Sprague-Dawley rat liver at 30 mg/kg, po by LC/MS/MS analysis; assay type: ADME, organism-based; set-up: dose 30 mg/kg, route oral
# Hepatitis C virus [32] = assay: microbe, parasite or virus in culture; conditions: Huh-7, 72 h; remark: listed apart in the source
# [33] = Cytotoxicity against human Huh7 cells assessed as lactate dehydrogenase release after 72 hrs; assay type: cell-based, Huh-7
# [34] = Tmax in Sprague-Dawley rat at 5 mg/kg, po by LC/MS/MS analysis; assay type: ADME, organism-based; set-up: dose 5 mg/kg, route oral; conditions: in vivo
# [35] = Cmax in Sprague-Dawley rat liver at 10 mg/kg, po by LC/MS/MS analysis; assay type: ADME, organism-based; set-up: dose 10 mg/kg, route oral
# [36] = AUC (2 to 24 hrs) in Sprague-Dawley rat whole blood at 30 mg/kg, po by LC/MS/MS analysis; assay type: ADME, organism-based; set-up: time 2-24 hr, dose 30 mg/kg, route oral
# Cytochrome P450 3A4, sequence (P08684 whole entry): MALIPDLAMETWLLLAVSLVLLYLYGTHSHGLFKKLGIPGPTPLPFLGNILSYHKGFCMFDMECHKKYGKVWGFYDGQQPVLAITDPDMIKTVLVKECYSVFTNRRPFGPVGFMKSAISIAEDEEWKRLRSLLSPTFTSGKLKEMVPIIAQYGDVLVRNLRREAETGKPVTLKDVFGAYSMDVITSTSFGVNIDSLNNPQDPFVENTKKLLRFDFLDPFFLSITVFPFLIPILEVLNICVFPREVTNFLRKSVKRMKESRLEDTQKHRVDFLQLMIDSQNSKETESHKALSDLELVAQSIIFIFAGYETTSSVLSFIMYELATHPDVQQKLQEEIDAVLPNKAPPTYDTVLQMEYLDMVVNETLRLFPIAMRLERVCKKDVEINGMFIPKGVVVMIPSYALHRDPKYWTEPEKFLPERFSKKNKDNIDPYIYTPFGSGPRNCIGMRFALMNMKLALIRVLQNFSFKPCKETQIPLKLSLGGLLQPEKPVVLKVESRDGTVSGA
# Cytochrome P450 2D6, sequence (P10635 whole entry): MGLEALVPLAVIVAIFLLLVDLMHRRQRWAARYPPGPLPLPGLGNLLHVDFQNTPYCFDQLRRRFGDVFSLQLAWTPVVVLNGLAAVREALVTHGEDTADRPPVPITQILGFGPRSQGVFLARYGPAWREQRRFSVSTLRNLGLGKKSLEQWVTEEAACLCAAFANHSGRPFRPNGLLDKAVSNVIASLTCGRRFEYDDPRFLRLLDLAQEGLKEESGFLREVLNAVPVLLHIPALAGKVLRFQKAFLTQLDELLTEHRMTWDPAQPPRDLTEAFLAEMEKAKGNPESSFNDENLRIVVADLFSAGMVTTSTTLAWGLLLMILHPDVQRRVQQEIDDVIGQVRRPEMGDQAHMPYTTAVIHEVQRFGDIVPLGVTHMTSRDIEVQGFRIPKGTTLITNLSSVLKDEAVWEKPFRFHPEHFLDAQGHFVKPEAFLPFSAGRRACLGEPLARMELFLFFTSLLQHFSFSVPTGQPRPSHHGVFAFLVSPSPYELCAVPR
compound,measurement,setting,value
"C/C=C/C[C@@H](C)[C@@H](O)[C@H]1C(=O)N[C@@H](CC)C(=O)N(C)C(SCCN(C)C)C(=O)N(C)[C@@H](CC(C)(C)O)C(=O)N[C@@H](C(C)C)C(=O)N(C)[C@@H](CC(C)C)C(=O)N[C@@H](C)C(=O)N[C@H](C)C(=O)N(C)[C@@H](CC(C)C)C(=O)N(C)[C@@H](CC(C)C)C(=O)N(C)[C@@H](C(C)C)C(=O)N1C (single isomer, unassigned) [SCY 635]",IC50,Cytochrome P450 2D6,> 100 µM
same,AUC(0-t),[1],30500 ng·h/mL
same,AUC(0-inf),[2],26500 ng·h/mL
same,Cmax,[3],1810 ng/mL
same,Vd,[4],1.69 L/kg
same,IC50,Cytochrome P450 3A4,58.5 µM
same,half-life,[5],26.3 h
same,Vd,[6],3.37 L/kg
same,half-life,[7],19.2 h
same,Vd,[8],4.3 L/kg
same,EC50,Hepatitis C virus [9],0.12 µM
same,half-life,[10],22.3 h
same,half-life,[11],22.2 h
same,Drug uptake,Hepatocyte [12],0.55 ng/mg
same,Tmax,[13],4 h
same,clearance,[14],0.47 mL/min/kg
same,Tmax,[15],8 h
same,Tmax,[16],2 h
same,Cmax,[17],1760 ng/mL
same,IC50,Cytochrome P450 1A2,> 100 µM
same,Cmax,[18],900 ng/mL
same,EC50,Hepatitis C virus [19],0.07 µM
same,half-life,[20],24.6 h
same,AUC(0-inf),[21],49900 ng·h/mL
same,Drug uptake,Hepatocyte [22],6.05 ng/mg
same,AUC(0-inf),[23],42500 ng·h/mL
same,Cmax,[24],2560 ng/mL
same,Activity,Hepatitis C virus [25],tde
same,EC50,Jurkat,9.9 µM
same,half-life at 1 µM,[26],1.05 h
same,Drug uptake,Hepatocyte [27],3.16 ng/mg
same,Activity,PBMC,Non-toxic
same,Cmax,[28],2990 ng/mL
same,bioavailability,[29],17.7%
same,AUC(0-t),[30],18000 ng·h/mL
same,Cmax,[31],16800 ng/mL
same,EC50,Hepatitis C virus [32],0.09 µM
same,CC50 at 72 h,[33],13.7 µM
same,Tmax,[34],4 h
same,Cmax,[35],11100 ng/mL
same,AUC(0-t),[36],30200 ng·h/mL

# Source: ChEMBL document CHEMBL1212786 (Antimicrob Agents Chemother, 2010)
